Reference: paper PMC11433764, “A Novel Compound from the Phenylsulfonylpiperazine Class: Evaluation of In Vitro Activity on Luminal Breast Cancer Cells” (Molecules, 2024)

Test system: MDA-MB-453
Assay: MTT cell viability, MDA-MB-453
Format: cell-based
Experimental: Four different breast cells lines were used in this study: MCF-10A (non-tumorigenic), MCF7 (ER+ BC), MDA-MB453 (HER2+ BC) and MDA-MB231 (TNBC). All lineages were obtained from the American Type Culture Collection (ATCC; Manassas, VA, USA) and maintained at a temperature of 37 °C according to the supplier’s recommendations. Only MDA-MB231 cells were not kept in an atmosphere of 5% CO2. MCF-10A was grown in Dulbecco’s Modified Eagle’s Medium (DMEM F12, Gibco, ThermoFisher Scientific, Waltham, MA, USA) supplemented with 20 ng/mL epidermal growth factor (Gibco, ThermoFisher Scientific, Waltham, MA, USA), 0.5 μg/mL hydrocortisone (Sigma-Aldrich, Sigma-Aldrich, St. Louis, MO, USA) and 10 μg/mL insulin (Gibco, ThermoFisher Scientific, Waltham, MA, USA). MCF7 was cultivated in Roswell Park Memorial Institute Medium (RPMI-1640, Gibco, ThermoFisher Scientific, Waltham, MA, USA), MDA-MB453 in IMDM and MDA-MB231 in Leibovitz’s medium (L-15, Gibco, ThermoFisher Scientific, Waltham, MA, USA). All media were supplemented with 10% fetal bovine serum (FBS, Gibco, ThermoFisher Scientific, Waltham, MA, USA) and 50 µg/mL of gentamicin (Cultilab, Campinas, SP, Brazil). The cells were confirmed to be free of mycoplasma and passaged using a 0.25% trypsin-EDTA solution when confluency reached 80–90%.
Cell viability was determined by spectrophotometric quantification of MTT (3-[4,5-dimethyl-thiazol-2-yl]-2,5-diphenyltetrazolium bromide—Invitrogen. Waltham, MA, USA) reduction to formazan crystals. Cells were seeded at the density of 1 × 10^4 cells/well (MCF-10A, MDA-MB453), 1.5 × 10^4 cells/well (MDA-MB231) and 3 × 10^3 cells/well (MCF7) in 96-well culture dishes and incubated with different concentrations of the compounds (1.25, 2.5, 5, 10, 20, 40, 80 and 160 µM) for 48 h. The medium was than replaced by MTT solution (0.5 mg/mL) and plates were kept at 37 °C for 4 h. After the aspiration of the media, the formazan crystals were diluted with 100 μL of dimethyl-sulfoxide (DMSO)/well and the absorbance at 570 nm was measured using a spectrophotometer (Thermo Plate TP-Reader, Waltham, MA, USA). Cytotoxicity was calculated using the following formula: Cytotoxicity (%) = [absorbance of cells treated with the compounds/absorbance of cells treated with DMSO) × 100]. The IC50 was determined for each compound and was defined as the concentration required to inhibit 50% of cell growth, compared to the control sample (cells treated with DMSO 0.05%).
Data were presented as the mean ± standard deviation (SD) and analyzed using GraphPad Prism 9.0 software (GraphPad Software Inc., La Jolla, CA, USA). All data were assayed in triplicate. Statistical analysis was performed using one-way ANOVA, Tukey´s HSD post hoc test and Student’s t-test. The IC50 was calculated using non-linear regression and the selectivity index (SI) was calculated by the ratio between the IC50 values corresponding to the non-tumor cell lineage (MCF-10A) and the IC50 values corresponding to the BC cell lines. Statistical significance was accepted at p values < 0.05.

Question: What does the source list for `O=C(c1ccc(-n2cnnn2)cc1)N1CCN(S(=O)(=O)c2ccc(Cl)cc2)CC1` [Compound 3, (4-(1H-tetrazol-1-yl)phenyl)(4-((4-chlorophenyl)sulfonyl)piperazin-1-yl)methanone]?
Answer: IC50 (Homo sapiens, MDA-MB-453, 48 h, MTT, 1.25–160 μM, read-out: IC50 MDA-MB-453): 80 µM; SI MDA-MB-453 (IC50 MCF10A / IC50 MDA-MB-453): >2.00
